Results published in patent US8765783B2, “Pharmaceutical composition for treatment of disease due to vascular constriction or vasodilation” (Ono Pharmaceuticals Co., Ltd., priority 2002, dated 2014).
“Also recorded” adds a separate entry of the source.

Columns and labels:
[1] = system: rat basilar artery; experiment: Vasoconstrictor action of rat basilar artery induced by S1P into cisterna (in vivo); details: 10 μg/100 μL/rat, i.c., 30 minutes after S1P into cisterna
Excerpt: Rat (CD(SD)IGS, male, Charles River Japan Inc., 11 weeks old-13 weeks old, 400-550 g) was anesthetized by injection of urethane (1.2 g/kg, s.c.), incised scalp of occipital for administration of S1P into cisterna and then fixed to dorsal position. Rat was inserted into trachea with catheter and then, cut down with esophagus, and skull at the base of brain was exposed. Under the stereomicroscope, craniotomy was carefully operated with electric drill and scorper forceps. We made basilar artery expose, and it was done in the condition which arachnoid was left, and coating on basilar artery was exfoliated, and could be observed. Observation and image capture of basilar artery were performed using the stereomicroscope (Olympus Optics Inc., SZH-10) and charge-coupled device (CCD) camera (FUJIFILM, HC-2500) connected with it. Macscope (MITANI Corp.) was used as an Image capture software. […] Diameter of basilar artery was measured by selecting from an area having no branch in the center of basilar artery. The diameter was calculated by comparing with the length of micrometer (0.2 mm, 0.01 mm scale) shooted in the same condition. […] The calculation of percentage of basilar artery diameter was calculated by dividing diameter after the S1P administration by a pre-value. […]

[2] = system: SD rat; experiment: Increase of rat blood pressure by S1P; format: in vivo; details: anesthetized male SD rat, intraperitoneally injected
Experimental: Male SD Rat (8 weeks old-10 weeks old) was anesthetized by injection of pentobarbital sodium (50 mg/mL/kg), after midline incision in the cervical region, trachea was exposed by exfoliation of tracheal muscle layer and cannula made of polyethylene was inserted into trachea. Next, catheter made of polyethylene was inserted into the common carotid artery and the common jugular vein. Catheter inserted into the common carotid artery was connected to the piezotransducer and the blood pressure was recorded on the recorder through strain compression amplifier. After the above mentioned operation was finished, in the case of the spinal chord was broken, the spinal chord was broken by insertion of stainless pole into the spinal chord cavity. After the spinal chord was broken, tracheal cannula was immediately connected into the artificial breathing device for small animals and artificial ventilation was performed under the conditions of a ventilatory volume 6 mL/kg and velocity 60 times/min. After then, S1P was administered and we confirmed blood pressure was increased. […] As a result, the compound (3) inhibited the increase of blood pressure by S1P.

[3] = system: rat dural blood flow; experiment: Decrease of dural blood flow induced by S1P; format: in vivo; details: 10 mg/kg through femoral vein; S1P 300 μg/kg into cisterna
Excerpt: Rat (CD(SD)IGS, male, Charles River Japan Inc., 10 weeks old-13 weeks old, 450-520 g) was anesthetized by injection of urethane (1.2 g/kg, s.c.), placed in the femoral vein with catheter (polyethylene tube SP10; I.D. 0.28 mm, O.D. 0.61 mm: Natsume Seisakusho Co. Ltd.) for compounds administration, and then blood flow to brain through only vertebral artery was made to happen by tying both sides of common carotid arteries. Next, the scalp was cut open and the head region was exposed in order to measure dural blood flow and administer into cisterna. In addition, the trachea was placed with catheter (polyethylene tube; size 7.9: Hibiki) and it connected to the artificial respirator. The measurement of dural blood flow was performed to transmit with 1a ser light to skull using Moon Laser Doppler Imager (Moor LDI) [about 11cm distant from measuring object, about 150 dots both of XY measurement resolution, scanning about 2.8×2.8 cm area (150dots/2.8 cm)]. In addition, measurement condition involved in flux calculation (FLUX; relative value) such as sensitivity -gain etc., was integrated within all experiment. The images of blood flow were captured through the capture software, moor LDI Measurement V3.08, and image data was treated with analyzed software, moor LDI Image Processing V3.08. […]

[4] = system: removed rabbit coronary artery; experiment: Vasoconstrictor action of removed rabbit coronary artery; details: removed rabbit coronary artery ring
Experimental: The heart was removed from Male rabbit (NZ White, a bout 2 kg) under anesthesia and immersed into cooled Krebs-Henseleit solution. After that, coronary artery was cut out, heart muscle and fat tissue connected around the heart were removed and ringed samples were made. Samples hung in micro tissue organ bath (MTOB-1: Preimetech Corp.) filled with Krebs-Henseleit solution (37° C.) or magnus tube, they were loaded with about 0.2 g-0.5 g resting tension stabilized for about 60 minutes, and then constrictive movement was recorded on a recorder (linearcoda WR3320: Graphtec Corp.) through strain compression amplifier (AP-601G, Nihon Kohden).

[5] = system: SHR rat; experiment: Blood pressure of SHR rat; format: in vivo; details: 1 mg/kg, 3 mg/kg and 10 mg/kg, i.v.; SHR rat under the awakening
Excerpt: Rat (SHR/Crj, male, Charles River Japan Inc., 12 weeks old-13 weeks old) was anesthetized by ether, and then rat was fixed in the dorsal position on the laboratory table. Cannula filled with physiologic saline containing heparin was inserted into the femoral artery and cannula filled with physiologic saline was inserted into the femoral vein, respectively. After finish of the operation, rat was fixed in the ballmancage and left at rest until the awakening. The artery cannula was connected to the piezotransducer (DX-100, Nihon Kohden) and the blood pressure was measured through strain compression amplifier(AP-601G, Nihon Kohden). After about 30 minutes from confirming awakening of rat, the blood pressure was measured for additional 30 minutes and then, the compound (3) (1 mg/kg, 3 mg/kg, and 10 mg/kg, i.v.) or vehicle (10% DMSO/plasma) was administered intravenously. After administration, blood pressure was measured for more than 30 minutes. […] In contrast, the compound (3) had little effect on the heart rate.

Cc1nn(C)c2nc(NNC(=O)Nc3cc(Cl)nc(Cl)c3)cc(C(C)C)c12 [compound (3), N-(2,6-dichloro-4-piridinyl)-2-(4-isopropyl-1,3-dimethyl-1H-pyrazolo[3,4-b]pyridin-6-yl)hydrazinecarboxamide]
inhibition of vasoconstrictor action of rat basilar artery by S1P (basilar artery diameter) [1]: inhibited; also recorded: suppression | inhibition of the increase of blood pressure by S1P [2]: inhibited | inhibition of decrease of dural blood flow by S1P [3]: inhibited; also recorded: suppression | inhibitory activity on constriction of rabbit coronary artery by S1P [4]: inhibitory activity | antihypertensive effect on SHR rat blood pressure [5]: antihypertensive effect
